Entries after “also recorded” stand apart in the source; their conditions may differ. Residues, ends and D or L forms follow the SMILES beside them.

In data set [1] the test system is CHO/APPwt cells. Description: Total cell associated cholesterol in CHO/APPwt cells. Format: cell-based, Chinese hamster. To be noted: 6KApoEp 0, 5 and 10 μM overnight. Here is the method:
(§1) Total cell associated cholesterol levels are represented as mean±s.d. (μg/mg of total intracellular protein) from three independent experiments. In addition, total plasma cholesterol levels in 3×Tg-AD mice treated with ApoEp (n=6) and 5×FAD mice treated with 6KApoEp (n=10) or PBS (Ctrl, n=10), as described in FIGS. 25A-26G, and in associated wild-type mice (WT) were analyzed by flourometric cholesterol quantitation kit (FIG. 31B). LDLR (FIG. 31C, top panel) and ApoE (middle panel) expression levels in brain homogenates were also analyzed by WB. […] (*P<0.05) and P>0.0.5, non-significant compared to control treatment.
CHO/APPwt cells were cultured overnight in 6-well plates at 2×10^6 cells/well in serum free DMEM, followed by washing 3 times with ice-cold PBS, lysis by sonication in chloroform:isopropanol:IGEPAL CA-630 (7:11:0.1) and centrifugation. The organic phase was transferred to a new tube, air dried at 50° C. to remove chloroform and diluted 10-fold in cholesterol assay buffer for cholesterol determination by flourometric cholesterol quantitation kit according to manufacturer's instructions (MilliporeSigma).

A short description of data set [2]: Plasma cholesterol and brain LDLR and ApoE expression in treated 3×Tg-AD and 5×FAD mice. Format: in vivo, mouse. The conditions noted are these: 5×FAD mice treated with 6KApoEp. Here is the method: as §1
Data set [3] relates to CHO/APPwt cells. Description: Aβ production in CHO/APPwt cells, treatment alone (Aβ1-40, 42 ELISA, 82E1 WB). In kind it is cell-based, Chinese hamster. The conditions noted are these: for Aβ production (Aβ1-40, 42): serum-free medium, 2 h (ELISA) or 16 h (WB). Here is the method: Chinese hamster ovary (CHO) cells overexpressing human wild-type amyloid precursor protein (APPwt) (CHO/APPwt cells) were cultured in 96-well plate at about 2×10^4/well in Dulbecco's modified Eagle's medium (DMEM) with 10% fetal bovine serum (FBS), 1 mM sodium pyruvate and 100 U/mL of penicillin/streptomycin for 18 hours.
CHO/APPwt cells were cultured in 96-well plate (about 2×10^4/well) in serum-free medium and treated with ApoE LDLR, FlagApoE LDLR (SEQ ID NO.: 1 with an N-terminal FLAG tag), BiotinApo LDLR (SEQ ID NO.: 1 with an N-terminal Biotin) and 3 lysinesApoE LDLR (3KApoE LDLR (SEQ ID NO.: 2)) at indicated doses for about 2 hours.
The conditioned media and cell lysates were prepared, and subjected to Aβ ELISA and protein assay.
CHO cells overexpressing human wild-type APP (CHO/APPwt) cells were cultured in 96-well plate at 2×10^4/well in Dulbecco's modified Eagle's medium (DMEM) with 10% fetal bovine serum (FBS), 1 mM sodium pyruvate and 100 U/mL of penicillin/streptomycin for 18 hours. […] 82E1 WB analyses as shown below the Aβ ELISA result histograms. The Aβ ELISA results are representative of three independent experiments with each condition triplicated and presented as mean±SD.
(residues 133-152, SEQ ID NO: 1)] as indicated for 2 and 16 hours (h). The conditioned media and cell lysates were analyzed by Aβ1-40, 42 ELISA (FIG. 10A), 82E1 WB analysis (FIG. 10B) and protein assay, respectively. In addition, (FIG. 10C) CHO/APPwt cells were cultured in 96-well plate (2×10^4/well) in serum-free DMEM and treated with FlagApoE-LBDP, BiotinApoE-LBDP and 3 lysineApoE-LBDP (3KApoE-LBDP) in comparing to ApoE-LBDP at indicated doses for 2 hours (h). […] (SEQ ID NO: 2); […]-[…] (SEQ ID NO: 10); Biotin-[…] (SEQ ID NO: 1 with an N-Terminal Biotin).
CHO cells engineered to express human wild-type APP (CHO/APPwt) or Swedish mutant APP (CHO/APPswe) were obtained. These cells were cultured in 96 or 24 well plates at 4×10^4 or 2×10^5 cells/well, respectively, in Dulbecco's modified Eagle's medium (DMEM) with 10% fetal bovine serum, 1 mM sodium pyruvate and 100 U/mL of penicillin/streptomycin (Invitrogen, Thermo Fisher Scientific). In addition, murine N2a cells transfected with APPwt (N2a/APPwt were obtained), SH-SY5Y cells transfected with APPswe and wild-type SH-SY5Y cells (ATCC, Manassas, Va.) were cultured as previously described^42. Primary hN2TM human neurons (Neuromics, Edina, Minn.) were cultured in hN2TM human neuron culture media and primary HCN2 human neurons (ATCC) were cultured in DMEM with 4 mM L-glutamine adjusted to contain 1.5 g/L sodium bicarbonate, 4.5 g/L glucose, fetal bovine serum (10%).
(§2) Aβ1-40, 42 and sAPPα from cell and brain homogenates were detected by Aβ1-40, 42 and sAPPα ELISA kits (IBL-America), strictly following the manufacturer's instructions^43,44.
(§3) WB analyses were performed as previously described^43,44. Briefly, 10% bicine/tris gel containing 8 M urea was used for separation of Aβ1-40, 42 species from brain homogenates or CHO cell conditioned media or lysates, followed by transfer to 0.2 μm pore-size nitrocellulose membrane (Bio-Rad, Hercules, Calif.). The membrane was boiled in PBS for 3 to 5 min before blocking to enhance sensitivity and then incubated with 82E1. For all other proteins detected by WB, 10% tris-SDS gels were used. Densitometry analysis was performed as previously described using a FluorS Multiimager with Quantity One™ software 43.
(In an ELISA, binding on a coated surface is turned into a signal by an enzyme label.)

Data set [4] concerns CHO/APPwt cells. The data set is described as follows: Inhibition of apoE-/lipoprotein-induced Aβ production in CHO/APPwt cells (Aβ ELISA). Format: cell-based, Chinese hamster. Here is the method:
CHO/APPwt cells were treated with apoE LDLR binding domain peptide (aa 133-152, ApoEp), FlagApoEp, BiotinApoEp, 3K (lysine) ApoEp, 3D (aspartate) ApoEp or scrambled peptide at 0 to 25 μM, followed after 2 h by analysis of Aβ levels in conditioned media by ELISA (Aβ ELISA, FIGS. 19A and 19C) and after 16 h by analysis of Aβ in cell lysates by Western blot using 82E1 antibody (Aβ WB, FIG. 19B). […] Pre-incubating with HDL has been previously reported to lipidate apoE. Hu astro med was obtained from human astrocytes (CCF-STTG1/ATCC® CRL-1718™) as described previously. […]
CHO cells were also transfected with pCMV6 APP695 or pCMV6 E1 depleted APP695, yielding cells expressing wild type APP695 (CHO/APPwt) or truncated APP695 lacking the N-terminal E1 region (CHO/APPdE1). […] Diagram indicates important domains identified in APP, including N-terminal E1 region (top panel), and APPwt and APPdE1 proteins in cell lysates and conditioned media derived from the transfected CHO cells as determined by WB using 6E10 (middle panels). […] Asterisk indicates P<0.05 compared with the corresponding absence of 22C11, 6H3B5 or 6KApoEp, or with corresponding CHO/APPwt cells, as determined by one-way ANOVA. […]
as §2

The target of data set [5] is T1, human wild-type amyloid precursor protein (APPwt) expressed in CHO/APPwt cells (human, UniProt P05067 18-770). Description: cell-based or functional assay.
The target in data set [6] is T2, CHO/APPwt cell conditioned medium-derived sAPPα (cmsAPPα) (human, UniProt P05067 18-687, limits assumed).
T2 construct: domain: sAPPα
Description: in vitro incubation 1 h at 37 °C, IP with 6H3B5, WB.

For data set [7], the target named is T3, human recombinant sAPPβ (rsAPPβ, without Aβ domain) (human, UniProt P05067 18-671, limits assumed).
T3 construct: domain: sAPPβ (without Aβ domain); Bought protein
The data set is described as above.

Data set [8] has as its target T4, human recombinant sAPPα (rsAPPα) (human, UniProt P05067 18-687, limits assumed).
T4 construct: domain: sAPPα; also called human sAPPα protein
The data set is described as above.

For data set [9], the target named is T5, total secreted APP (t-sAPP) in CHO/APPwt conditioned media (human, UniProt P05067 18-687, limits assumed).
T5 construct: domain: total secreted APP (t-sAPP); Mixture of secreted APP ectodomain forms
Description: CHO/APPwt cells treated 2 h; IP of conditioned media with 6H3B5 or pN-APP and WB. Here is the method:
as §3, with “described^{43,44}.” for “described^43,44.”, “43. Immunoprecipitation (IP) was performed by first incubating conditioned media or cell lysates with appropriate antibodies and Protein-A/G Mag Sepharose beads (GE Healthcare Life Sciences, Pittsburgh, Pa.) overnight with gentle rocking at 4° C., followed by three washes with binding buffer (50 mM tris, 150 mM NaCl, pH 7.5) and analysis by WB.” for “43.”

Data set [10] has as its target T1, human wild-type amyloid precursor …. The data set is described as follows: CHO/APPwt cells treated 2 h; IP of cell lysates with 6H3B5 or pN-APP and WB; immunofluorescence. As for the experimental part:
as §3, with “described^{43,44}.” for “described^43,44.”, “43. Immunoprecipitation (IP) was performed by first incubating conditioned media or cell lysates with appropriate antibodies and Protein-A/G Mag Sepharose beads (GE Healthcare Life Sciences, Pittsburgh, Pa.) overnight with gentle rocking at 4° C., followed by three washes with binding buffer (50 mM tris, 150 mM NaCl, pH 7.5) and analysis by WB.” for “43.”

T1 sequence (P05067 18-770): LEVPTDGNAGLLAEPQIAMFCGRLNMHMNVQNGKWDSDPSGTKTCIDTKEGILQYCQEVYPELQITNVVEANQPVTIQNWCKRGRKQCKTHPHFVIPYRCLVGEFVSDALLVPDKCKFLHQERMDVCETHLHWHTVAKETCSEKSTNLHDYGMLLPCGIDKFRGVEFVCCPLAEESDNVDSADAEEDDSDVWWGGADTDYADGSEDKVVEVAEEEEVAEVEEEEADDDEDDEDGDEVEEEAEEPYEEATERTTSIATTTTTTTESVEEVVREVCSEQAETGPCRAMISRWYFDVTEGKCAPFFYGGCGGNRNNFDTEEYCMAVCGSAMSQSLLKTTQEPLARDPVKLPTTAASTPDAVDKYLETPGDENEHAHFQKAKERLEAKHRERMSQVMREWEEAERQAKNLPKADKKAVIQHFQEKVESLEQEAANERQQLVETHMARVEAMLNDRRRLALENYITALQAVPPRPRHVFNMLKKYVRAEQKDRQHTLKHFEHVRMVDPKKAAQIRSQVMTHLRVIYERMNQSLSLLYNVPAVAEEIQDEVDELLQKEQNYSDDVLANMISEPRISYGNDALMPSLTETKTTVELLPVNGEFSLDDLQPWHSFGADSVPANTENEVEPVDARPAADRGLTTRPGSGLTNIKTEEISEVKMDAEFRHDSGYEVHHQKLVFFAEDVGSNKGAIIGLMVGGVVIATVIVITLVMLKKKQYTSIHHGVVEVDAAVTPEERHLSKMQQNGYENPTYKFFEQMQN
T3 sequence (P05067 18-671 limits assumed): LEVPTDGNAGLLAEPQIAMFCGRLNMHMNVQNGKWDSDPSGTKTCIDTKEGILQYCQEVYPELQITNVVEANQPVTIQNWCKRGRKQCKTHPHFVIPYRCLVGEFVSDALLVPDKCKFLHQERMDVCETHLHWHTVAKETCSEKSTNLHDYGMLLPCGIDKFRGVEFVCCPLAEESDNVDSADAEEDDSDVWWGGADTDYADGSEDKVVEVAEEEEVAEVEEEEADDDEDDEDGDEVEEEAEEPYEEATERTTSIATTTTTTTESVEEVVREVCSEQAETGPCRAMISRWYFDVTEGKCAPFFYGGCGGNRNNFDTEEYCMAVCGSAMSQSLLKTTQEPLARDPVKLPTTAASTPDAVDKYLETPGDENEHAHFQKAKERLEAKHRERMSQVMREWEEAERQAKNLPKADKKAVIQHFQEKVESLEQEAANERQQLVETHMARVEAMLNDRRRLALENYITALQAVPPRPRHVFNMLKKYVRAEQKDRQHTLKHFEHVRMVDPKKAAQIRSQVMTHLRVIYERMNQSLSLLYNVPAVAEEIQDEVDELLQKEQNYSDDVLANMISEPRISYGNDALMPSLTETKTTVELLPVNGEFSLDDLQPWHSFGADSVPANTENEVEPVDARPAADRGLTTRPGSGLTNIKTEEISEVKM
T4 sequence (P05067 18-687 limits assumed): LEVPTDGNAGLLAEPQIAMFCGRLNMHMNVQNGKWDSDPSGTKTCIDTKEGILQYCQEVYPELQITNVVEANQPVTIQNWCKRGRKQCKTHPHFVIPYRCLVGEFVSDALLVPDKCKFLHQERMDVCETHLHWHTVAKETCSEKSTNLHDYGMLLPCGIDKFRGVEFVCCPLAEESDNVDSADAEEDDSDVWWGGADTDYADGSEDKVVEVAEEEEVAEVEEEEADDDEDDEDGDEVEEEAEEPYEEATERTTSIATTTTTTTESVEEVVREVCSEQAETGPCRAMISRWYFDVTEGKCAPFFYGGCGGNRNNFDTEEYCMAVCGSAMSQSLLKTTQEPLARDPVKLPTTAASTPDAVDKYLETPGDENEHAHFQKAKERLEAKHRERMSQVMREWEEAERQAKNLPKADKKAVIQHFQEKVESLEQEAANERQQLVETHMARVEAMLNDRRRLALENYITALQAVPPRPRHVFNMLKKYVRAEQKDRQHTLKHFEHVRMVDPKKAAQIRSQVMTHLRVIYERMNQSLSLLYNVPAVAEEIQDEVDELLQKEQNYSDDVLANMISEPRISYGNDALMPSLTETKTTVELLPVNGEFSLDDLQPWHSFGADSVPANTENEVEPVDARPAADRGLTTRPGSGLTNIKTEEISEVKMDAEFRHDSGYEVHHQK
T2 sequence (P05067 18-687 limits assumed): as above
T5 sequence (P05067 18-687 limits assumed): as above

Take `CC(C)C[C@H](NC(=O)[C@H](CCCNC(=N)N)NC(=O)[C@@H](NC(=O)[C@H](CCCNC(=N)N)NC(=O)[C@H](CC(C)C)NC(=O)[C@H](CCCCN)NC(=O)[C@H](CCCCN)NC(=O)[C@H](CCCCN)NC(=O)[C@H](CCCCN)NC(=O)[C@H](CCCCN)NC(=O)[C@@H](N)CCCCN)C(C)C)C(=O)N[C@@H](C)C(=O)N[C@@H](CO)C(=O)N[C@@H](Cc1c[nH]cn1)C(=O)N[C@@H](CC(C)C)C(=O)N[C@@H](CCCNC(=N)N)C(=O)N[C@@H](CCCCN)C(=O)N[C@@H](CC(C)C)C(=O)N[C@@H](CCCNC(=N)N)C(=O)N[C@@H](CCCCN)C(=O)N[C@@H](CCCNC(=N)N)C(=O)N[C@@H](CC(C)C)C(=O)N[C@@H](CC(C)C)C(=O)N[C@@H](CCCNC(=N)N)C(=O)N[C@@H](CC(=O)O)C(=O)N[C@@H](C)C(=O)O` [6KApoEp] (H-KKKKKKLRVRLASHLRKLRKRLLRDA-OH; N-terminus and C-terminus assumed): the cell-associated cholesterol levels entry in data set [1] is “without altering cell-associated or plasma cholesterol levels”. Further, the plasma cholesterol levels entry in data set [2] is “without altering cell-associated or plasma cholesterol levels”.

For “DYKDDDDK-LRVRLASHLRKLRKRLLRDA (DYKDDDDKLRVRLASHLRKLRKRLLRDA; N-terminal FLAG ApoE recombinant polypeptide) [FlagApoEp, ApoEp modified by N-terminal addition of Flag-Tag]”, the “Aβ production (Aβ1-40, 42)” value in data set [3] is on record as “greatly enhanced the efficacy of ApoEp to increase Aβ1-40, 42 levels”.

“ApoB100: apolipoprotein B, human plasma (Athens Research & Technology)”: in [3], the sAPPα secretion result was “decreased sAPPα secretion” and the “Aβ production (Aβ1-40, 42)” value is listed as “increased Aβ1-40, 42 production; also recorded: markedly promote amyloid β protein (Aβ) production”.

“KKKLRVRLASHLRKLRKRLLRDA (polypeptide configured to modulate binding of a protein the an ApoE receptor) [3KApoEp, ApoEp with 3 N-terminal lysines]”: in data set [3], the “Aβ production (Aβ1-40, 42)” value is reported as “terminated this amyloidogenic effect”. In addition, the “basal and apoE4-induced Aβ production” value in [4] (peptide 10 μM for 15 min, then with or without hu rec ApoE4 10 μg/mL for 2 hours) was “moderately”. In data set [4] (pre-treatment at about 10 μM, then inducer for about 2 hours), the “Aβ generation induced by human plasma ApoE3, human recombinant ApoE3 and ApoE4, human plasma LDL and ApoB100” value is listed as “Markedly Inhibits Aβ Generation”.

Take KKKKKKLRVRLASHLRKLRKRLLRDA [6KApoEp (ApoE LDLR binding domain peptide with 6 N-terminal lysines)]: the “apoE4-induced Aβ production in CHO/APPwt cells (Aβ ELISA and WB), IC50” value in [5] was in the range of 320 to 630 nM.

B1: 6K (6 lysine peptide) (peptide)
peptide: KKKKKK
notes: Control peptide of six lysines; also called 6K lysine
For B1, the binding result is given as “no binding (tested: 100 nM)” in [6]; “no binding (tested: 100 nM)” in [7]; “no binding (tested: 100 nM)” in data set [8]; “no binding (tested: 10 µM)” in data set [9]; “no binding (tested: 10 µM)” in [10].

The values above are taken from patent US20190185544A1, “COMPOSITIONS AND METHODS OF MODULATING ABETA PROTEIN” (University of South Florida, priority 2016, published 2019).
